Results: patent publication US12410407B2, “Choroid plexus organoids and methods for production thereof” (UNITED KINGDOM RESEARCH AND INNOVATION, priority 2019, dated 2025)
Read-outs that look alike come from different tables or passages of the source. Marks after values point to notes of the source that are not given here.

How the values were obtained:
ChP epithelial barrier [1] = tested on: ChP epithelial barrier; set-up: Km, uu, iCSF: unit not given beside the values
[2] = in vivo, from literature, cited from earlier work
[3] = cited from earlier work
ChP epithelial barrier [4] = test: ChP organoid small-molecule permeability, NMR analysis of media and iCSF; settings: for Presence in iCSF by NMR: after 2h incubation, 500 μM, L-Dopa in the presence of Carbidopa
Procedure: On day 5 media was replaced with NI media in the same 96-well. After two days EBs were embedded in 20 μl matrigel using sheets of dimpled parafilm and incubated for 20 min at 37° C. as previously described (2). EBs were then transferred to a 6-well plate with 3 ml of Expansion media per well. For ChP patterning, on day 10 treatment with 3 μM CHIR and 20 ng/ml BMP4 in Maturation media was used keeping a maximum number of 6 EBs in each 5 cm dish. The treatment was kept for 7 days in maturation media. On day 15 organoids were moved to an incubator with a shaker and were fed every 3-4 days with maturation media. From day 30 dissolved matrigel (1:50) was added to the maturation media.
For NMR experiments, ChP organoids were incubated in complete IDM+A media without phenol red and 1:50 Geltrex (Gibco, A14132-02) for 2 h, 12h, 24 h, 48h or 72h. Organoid media and iCSF were collected and centrifuged at 500 g for 5 min to remove debris. ^1H-NMR spectra were acquired using a Bruker Ultrashield 400 Plus operating at 400.1 MHz. Samples consisting of H2O/D2O mixtures were analyzed using HOD suppression to collect ^1H-NMR data. Chemical shifts (6) are shown in ppm. The yields of conversion were determined by relative integration of the signals in the ^1H-NMR spectra. Data analysis was performed using MestReNova (version 7.0) and GraphPad Prism (version 7.0b).
Because the NMR measurements of in vitro fluids detected unbound drug, the ratio (Km,uu,iCSF) was a simple function of the ratio of drug in in vitro CSF (Cu,iCSF) to drug in media (Cu,m) (eq E).
Thus, in order to test for such selective permeability to small molecules, we applied various therapeutically relevant small molecules and assayed their permeability by NMR analysis of organoid iCSF. […] We incubated the organoids with Dopa and with L-Dopa in the presence of Carbidopa, a small molecule that prevents the conversion of L-Dopa into Dopa (34, 35).

[5] = six trial participants, one of whom died; cited from earlier work
[6] = In vivo drug levels in CSF and blood plasma, and unbound CSF to plasma ratio (literature data); set-up: species or system humans; settings: human, calculated from literature values (Qalb 0.005)
Procedure: For comparison between in vitro and in vivo levels of small molecules in CSF, in vivo unbound CSF to blood plasma ratio, Kp,uu,CSF, was calculated as the ratio of the unbound drug in CSF (Cu,CSF) to that in blood plasma (Cu,p) similar to previously described (7) (eq A). The amount of unbound drug in each of CSF and plasma is the product of the total drug concentration (Cp) or (CCSF) and the fraction of drug that is unbound (fu,p) or (fu,CSF)(eqs B and C). Cp, CCSF, and fu,p were taken from literature (Table S2). However, because of the difficulty in obtaining large amounts of CSF, for most drugs fu,CSF is not known.

[7] = in vivo data from mouse
Excerpt: Pre-clinical or clinical data of this molecule in humans are not yet available, but Phase I clinical trials are under way so any additional human in vitro data would be informative.

[8] = cited from earlier work; remark: listed apart in the source
protein misfolding = settings: mouse model of Charcot-Marie Tooth-1B; cited from earlier work
[9] = total drug concentration in CSF
[10] = total drug concentration in blood plasma
[11] = in vivo data from mouse, estimate from graph in reference
[12] = unbound concentrations reported, average of two measurements

For `N[C@@H](Cc1ccc(O)c(O)c1)C(=O)O` [L-DOPA, Levodopa], the “iCSF/media ratio, L-Dopa compared to Dopa” value (ChP epithelial barrier [1]) is given as “consistently higher”, the CCSF [2, 9] is given as roughly 150 ng/mL and the Cp [2, 10] is given as roughly 400 ng/mL. The “Entry into brain/CSF in vivo as established in the literature” value (“Entry into brain/CSF in vivo” below) [3] was “actively transported in to the CSF via the LAT-1 transporter”.
In the case of `CC(NC(C)(C)C)C(=O)c1cccc(Cl)c1` (stereo not drawn) [Bupropion], the “Km, uu, iCSF” value (ChP epithelial barrier [1]) is listed as 1.07 and the Cp [2, 10] is listed as 29.8 ng/mL.
In the case of `CN(C(=O)n1cnc(-c2ccc[n+]([O-])c2)c1)C1CCCCC1` [BIA-10-2474], the “Time course of the ratio in iCSF to media” value (ChP epithelial barrier [4]; 2 h, 12h, 24 h and 72h) is listed as “continued to accumulate in the iCSF”, the “Presence in iCSF by NMR” value (ChP epithelial barrier [4]) is listed as “able to cross the ChP epithelial barrier” and the “Adverse effects in Phase I clinical trials” value [5] is listed as “severe neurotoxicity”.
In the case of `CN(Cc1cnc2nc(N)nc(N)c2n1)c1ccc(C(=O)N[C@@H](CCC(=O)O)C(=O)O)cc1` [Methotrexate], the “Km, uu, iCSF” value (ChP epithelial barrier [1]) is given as 0.01, the CCSF [2, 9] is given as 0.27 µM and the Cp [2, 10] is given as 15.8 µM. For the same compound, the “Entry into brain/CSF in vivo” value [3] was “poorly cross the BBB” and the Kp uu [6] was 0.04.
With `NC(N)=N/N=C/c1ccccc1Cl` [Sephin 1] the “Kp, uu, CSF (total compound brain to plasma ratio)” value [7] was 10^#, the “Permeability in the human organoid model compared with the mouse model” value (ChP epithelial barrier [4]; 2h incubation, compared with published mouse data) was “much lower” and the “Presence in iCSF by NMR” value (ChP epithelial barrier [4]) was “detectable”. The CCSF [8, 11] was roughly 110 ng/g, the Cp [8, 11] was roughly 11 ng/mL and the “BBB crossing in mouse” value ([8]; mouse) was “cross the BBB”. For the same compound, the “CNS effect against protein misfolding” value (protein misfolding) was “protective CNS role against protein misfolding”.
For `NCCc1ccc(O)c(O)c1` [Dopamine], the “Km, uu, iCSF” value (ChP epithelial barrier [1]) is given as 0.10, the CCSF ([2]; Δ upon injection) is given as 9.01 ng/mL and the Cp ([2]; Δ upon injection) is given as 67.4 ng/mL. The “Entry into brain/CSF in vivo” value [3] was “doesn't enter the brain in vivo” and the Kp uu [6] was 0.185.
In the case of `CC[C@]1(O)C[C@H]2CN(CCc3c([nH]c4ccccc34)[C@@](C(=O)OC)(c3cc4c(cc3OC)N(C=O)[C@H]3[C@@](O)(C(=O)OC)[C@H](OC(C)=O)[C@]5(CC)C=CCN6CC[C@]43[C@@H]65)C2)C1` [Vincristine], the CCSF [2, 12] is listed as 0.000855 µM, the Cp [2, 12] is listed as 0.0205 µM and the “Entry into brain/CSF in vivo” value [3] is listed as “poorly cross the BBB”. The Kp uu [6] was 0.042.
